From publication PMC6272685, “Docking and Antiherpetic Activity of 2-Aminobenzo[de]-isoquinoline-1,3-diones” (Molecules, 2015)
Values after ≈ are worked out from the molar mass of the structure shown. Where two headings read alike, the source gives them in different places.

Assays:
HSV-1 = test: cytopathic effect inhibition assay against HSV-1 in Vero cells; format: cell-based, herpes simplex virus 1 (GHSV-UL46); details: for EC50: Human alphaherpesvirus 1, Vero, read-out: HSV-1 EC50; for EC50 / HSV-1 EC50: 48 h; for HSV-1 EC50: Vero cells, cytopathic effect inhibition; for antiviral activity against HSV-1 in words: in comparison with compounds 14–16; for HSV-1 SI: ratio of CC50 to EC50
Procedure: (§1) Vero cells (derived from the kidney of a normal African green monkey) were obtained from the American Type Culture Collection (ATCC, Manassas, VA, USA). The viral strains used were GHSV-UL46 for HSV-1 and the G strain for HSV-2. The Vero cells were propagated in Dulbecco’s modified Eagle’s medium (DMEM) supplemented with 10% heat-inactivated foetal bovine serum (FBS), 1% L-glutamine, HEPES buffer and 50 µg/mL gentamycin. All cells were maintained at 37 °C in a humidified atmosphere with 5% CO2 and were subcultured two times a week.
(§2) The antiviral screening was performed using a cytopathic effect inhibition assay at the Regional Center for Mycology and Biotechnology (RCMB, Al-Azhar University, Cairo, Egypt). This assay was selected to show specific inhibition of a biological function, that is, a cytopathic effect in susceptible mammalian cells. In brief, monolayers of 10,000 Vero cells adhering at the bottom of the wells in a 96-well microtiter plate were incubated for 24 h at 37 °C in a humidified incubator with 5% CO2. The plates were washed with fresh DMEM and challenged with 10^4 doses of herpes simplex 1 or 2 virus, and then the cultures were simultaneously treated with two-fold serial dilutions of the tested compound, starting from 500 µg/mL and going up to about 2 µg/mL (500, 250, 125, 62.5, …, 1.95 µg/mL) in a fresh maintenance medium; following this, they were incubated at 37 °C for 48 h. An infection control, as well as an untreated Vero cell control were made in the absence of tested compounds. […] Antiviral activity was determined by the inhibition of the cytopathic effect compared to a control, that is, the protection offered by the tested compound to the cells was scored. Three independent experiments were assessed, each containing four replicates per treatment.
(§3) After the incubation period, the media was aspirated, and then the cells were stained with a 1% crystal violet solution for 30 min. Thereafter, all excess stain was removed by rinsing the plates with tap water. The plates were allowed to dry, and then glacial acetic acid (30%) was added to all wells and mixed thoroughly. The absorbance of the plates was measured after gentle shaking on a microplate reader (Tecan Inc., Morrisville, NC, USA), at 590 nm. The viral inhibition rate was calculated as follows: [(ODtv − ODcv)/(ODcd − ODcv)] × 100% where ODtv, ODcv and ODcd indicate the absorbance of the tested compounds with virus-infected cells, the absorbance of the virus control and the absorbance of the cell control, respectively.
EC50 values were determined directly from the curve obtained by plotting the inhibition of the virus yield against the concentration of the samples. […] This index is referred to as a therapeutic index, and it was also used to determine whether a compound warranted further study.

HSV-2 = test: cytopathic effect inhibition assay against HSV-2 in Vero cells; format: cell-based, herpes simplex virus 2 (G strain); details: for EC50 / HSV-2 EC50: 48 h; for EC50: read-out: HSV-2 EC50; for HSV-2 SI: ratio of CC50 to EC50
Procedure: as §1, §2, §3
EC50 values were determined directly from the curve obtained by plotting the inhibition of the virus yield against the concentration of the samples. The selectivity index (SI) was calculated from the ratio of CC50 to EC50 in order to determine whether each compound had sufficient antiviral activity that exceeded its level of toxicity. This index is referred to as a therapeutic index, and it was also used to determine whether a compound warranted further study.

[1] = cytotoxicity evaluation using viability assay (crystal violet); format: cell-based, African green monkey; details: African green monkey, Vero cells
Procedure: as §1
(§4) The Vero cell lines in the cytotoxicity assay were seeded in 96-well plates at a cell concentration of 1 × 10^4 cells per well in 100 µL of the growth medium. Fresh medium containing different concentrations of the tested sample was added after 24 h of seeding. Serial two-fold dilutions of the tested compound were added to confluent cell monolayers dispensed into 96-well, flat-bottomed microtiter plates (Falcon, Jersey, NJ, USA) using a multichannel pipette. The microtiter plates were incubated at 37 °C in a humidified incubator with 5% CO2 for a period of 48 h. Three wells were used for each concentration of the tested sample. Control cells were incubated without test samples and with or without DMSO. The small percentage of DMSO present in the wells (maximal 0.1%) was not found to affect the experiment.
(§5) After the end of the incubation period, the viable cell yield was determined by a colorimetric method. In brief, the process of treatment the media with crystal violet solution and measurement of absorbance at 590 nm using a microplate reader was mentioned above. The absorbance was proportional to the number of surviving cells in the culture plate. All the results were corrected for background absorbance detected in wells without added stain. Treated samples were compared with the cell control in the absence of the tested compounds. All experiments were carried out in triplicate. The cell cytotoxicity effect of each tested compound was calculated.
(§6) Statistics were done using a one-way ANOVA test, and the percentage cell viability was calculated using Microsoft Excel®, as follows: % Cell viability = [(Mean Abscontrol− Mean Abstest metabolite)/Mean Abscontrol] × 100 where Abs equals the absorbance at 590 nm. The CC50 was estimated from graphic plots and the STATA statistical analysis package was used for the drawing of the dose response curve, in order to calculate CC50. Concerning antiviral evaluation, all experiments and data analysis were performed in RCMB, Al-Azhar University, Cairo, Egypt.

Vero cells = test: as above; format: cell-based, African green monkey; details: 48 h
Procedure: as §1, §4, §5, §6

[2] = Vero cells, cytopathic effect inhibition

Structure (SMILES): Nc1nc2c(ncn2COCCO)c(=O)[nH]1 [Acyclovir, reference compound]
- EC50 (HSV-1): 1.8 ± 0.2 µg/mL (≈ 7.99 µM)
- EC50 (HSV-2; Human alphaherpesvirus 2, Vero cells, cytopathic effect inhibition): 3.4 ± 0.6 µg/mL (≈ 15.1 µM)
- CC50 at 48 h [1]: 600 ± 18 µg/mL (≈ 2660 µM)

Structure (SMILES): O=C1C=CC(=O)N1N1C(=O)c2cccc3cccc(c23)C1=O [Compound 20]
- HSV-1 EC50 (HSV-1): >500 µg/mL
- HSV-2 EC50 (HSV-2; [2]): >500 µg/mL
- CC50 (Vero cells): 220 ± 16 µg/mL (≈ 753 µM)

Structure (SMILES): O=C1c2ccccc2C(=O)N1N1C(=O)c2cccc3cccc(c23)C1=O [Compound 21]
- HSV-1 EC50 (HSV-1): 102 ± 5.8 µg/mL
- antiviral activity against HSV-1 in words (HSV-1): good antiviral effect
- HSV-1 SI (HSV-1): 4.8
- HSV-2 EC50 (HSV-2; [2]): 374 ± 3.7 µg/mL
- antiviral activity against HSV-2 in words (HSV-2; in comparison with compounds 14–16): low activity
- HSV-2 SI (HSV-2): 1.3
- CC50 (Vero cells): 490 ± 21 µg/mL (≈ 1430 µM)

Structure (SMILES): O=C1c2cccc3cccc(c23)C(=O)N1N1C(=O)c2cccc3cccc(c23)C1=O [Compound 22]
- HSV-1 EC50 (HSV-1): 74.6 ± 3.4 µg/mL
- antiviral activity against HSV-1 in words (HSV-1): good antiviral effect
- HSV-1 SI (HSV-1): 7.5
- HSV-2 EC50 (HSV-2; [2]): 428 ± 10.2 µg/mL
- HSV-2 SI (HSV-2): 1.3
- CC50 (Vero cells): 560 ± 46 µg/mL (≈ 1430 µM)

Structure (SMILES): O=C1c2cccc3cccc(c23)C(=O)N1n1c(=O)c2cc3c(=O)oc(=O)c3cc2c1=O [Compound 23]
- HSV-1 EC50 (HSV-1): 176 ± 2.4 µg/mL
- antiviral activity against HSV-1 in words (HSV-1): low activity
- HSV-1 SI (HSV-1): 2.3
- HSV-2 EC50 (HSV-2; [2]): >500 µg/mL
- CC50 (Vero cells): 412 ± 18 µg/mL (≈ 999 µM)

Structure (SMILES): O=C1c2cccc3cccc(c23)C(=O)N1n1c(=O)c2cc3c(=O)n(N4C(=O)c5cccc6cccc(c56)C4=O)c(=O)c3cc2c1=O [Compound 24]
- HSV-1 EC50 (HSV-1): >500 µg/mL
- HSV-2 EC50 (HSV-2; [2]): >500 µg/mL
- CC50 (Vero cells): 386 ± 17 µg/mL (≈ 636 µM)

Structure (SMILES): NN1C(=O)c2cccc3cccc(c23)C1=O [Parent, 2-amino-1H-benzo[de]isoquinoline-1,3-dione]
- EC50 (HSV-1): > 500 µg/mL
- EC50 (HSV-2; Human alphaherpesvirus 2, Vero): > 500 µg/mL
- CC50 at 48 h [1]: 320 ± 24 µg/mL (≈ 1510 µM)
